Consider four molecules from patent US9999625B2, “Pyrrolobenzodiazepine compounds” (FEMTOGENIX LIMITED, priority 2014, dated 2018).

For test [1], the system named is MDA MB231 (triple negative human breast cancer). In words: Cytotoxicity by MTT assay. It counts as cell-based. Particulars: 72 hours exposure, MDA MB 231. How it is done:
MDA MB231 (triple negative human breast cancer) was obtained from the American Type Culture Collection. The cell-line was maintained in monolayer culture in 75 cm^2 flasks (TPP, Switzerland) under a humidified 5% CO2 atmosphere at 37° C. The MDA MB231 cell line was maintained in high glucose (Dulbecco's Modified Eagle Medium) DMEM (4.5 g\l; Invitrogen), foetal bovine serum (10%, Biosera UK), non-essential amino acids (ix; Invitrogen), L-glutamine (2 mM; Invitrogen) and Penicillin-Streptomycin (1% v/v, Invitrogen). For passaging, cells were washed with PBS [Phosphate-Buffered Saline] […] For seeding, cells were counted using a Neubauer haemocytometer (Assistant, Germany) by microscopy (Nikon, USA) on a non-adherent suspension of cells that were washed in PBS, trypsinised, centrifuged at 8° C. at 8000 rpm for 5 min and re-suspended in fresh medium.
The cells were grown in normal cell culture conditions at 37° C. under a 5% CO2 humidified atmosphere using appropriate medium. […] After 72 h of continuous exposure to each compound, the cytotoxicity was determined using the 3-(4,5-Dimethylthiazol-2-yl)-2,5-diphenyltetrazolium bromide (MTT) (Lancaster Synthesis Ltd, UK) colorimetric assay. Absorbance was quantified by spectrophotometry at λ=570 nm (Envision Plate Reader, PerkinElmer, USA). IC50 values were calculated by a dose-response analysis using the Prism GraphPad Prism® software. […]
(Formazan colour is commonly taken as a measure of viable cells.)

Test [2] relates to STAT3 consensus sequence (5′-GACATTGC-3′). In words: HPLC assay of DNA adduct formation. Particulars: 4:1 ligand:oligonucleotide, room temperature, UV 254 nm. In kind it is binding. From the text: (§1) The interactions of C1-linked PBD core compound (42), […] C1-linked PBD dimer compound (51) were studied with duplex transcription factor consensus sequences. For the C1-linked PBD core compound (42) and C1-linked PBD dimer compound (51) the study used a STAT3 consensus sequence (5′-GACATTGC-3′). Whereas for the C1-linked PBD monomer compound (49), an NF-KB consensus sequence (5′-GGGACAGCCC-3′) was used in the study. The interactions of each of the three compounds were studied with an HPLC assay utilizing a X-bridge MS […] Oligonucleotide Separation Technology (OST) column (2.3×50 mm) and a gradient of 40% acetonitrile/water and 100 mM TEAB ([…])/water as mobile phase with a flow rate of 0.5 mL/min and UV detection at 254 nm. A 4:1 molar ratio of ligand:oligonucleotide was used, with each single-stranded oligonucleotide dissolved in 1M ammonium acetate to form stock solutions of 1 mM. The oligonucleotides were initially annealed by heating their 1 mM solutions to 70° C. for 10 mins followed by gradual cooling over 8 hours and storage overnight at −20° C. Working solutions of oligonucleotides of 25 μM were then prepared by diluting the annealed stock solutions with 100 mM ammonium acetate. The ligands were dissolved in DMSO to form a stock solution of 10 mM which was stored at −20° C. for no longer than four months. Working solutions of the drug of 100 μM were prepared by diluting the stock solution with 100 mM ammonium acetate. The working solutions of the ligands were added to the working solution the oligonucleotides at RT, and the mixture incubated for different time intervals at room temperature. […] The chromatograms for HPLC assays using C1-linked PBD core (42), monomer (49) and dimer (51) compounds are shown in FIGS. 7, 8 and 9 respectively.

In test [3] the test system is NF-KB consensus sequence (5′-GGGACAGCCC-3′). In words: HPLC assay of DNA adduct formation. It counts as binding. Particulars: 4:1 ligand:oligonucleotide, room temperature, UV 254 nm.
Text: as §1

For a further test, the system named is cancer cell lines. Particulars: cited from earlier work.

SMILES strings stand for the structures. Entries after “also recorded” stand apart in the source; their conditions may differ.

The IC50 is the concentration that inhibits the measured activity by half. For the molecule `COc1cc2c(cc1OC)C(=O)N1CC[C@H](OCCCO[C@H]3CCN4C(=O)c5cc(OC)c(OC)cc5N=C[C@H]34)[C@H]1C=N2` [Compound 51, (1S,1′S)-1,1′-(Propane-1,3-diylbis(oxy))bis(7,8-dimethoxy-1,2,3,11a-tetrahydro-5H-benzo[e]pyrrolo [1,2-a][1,4]diazepin-5-one)], the IC50 in test [1] was 236 ± 27 nM. For the same molecule, the “DNA adduct formation (HPLC chromatogram)” value in test [2] was “evidence of DNA adduct formation; also recorded: interacted with the DNA consensus sequence to form adducts”.

With `COC(=O)c1cc(-c2ccc(NC(=O)c3nc(NC(=O)CO[C@H]4CCN5C(=O)c6cc(OC)c(OC)cc6N=C[C@H]45)cn3C)cc2)cn1C` [Compound 49, Methyl 4-(4-(4-(2-(((1S,11aR)-7,8-dimethoxy-5-oxo-2,3,5,11a-tetrahydro-1H-benzo[e]pyrrolo[1,2-a][1,4]diazepin-1-yl)oxy)acetamido)-1-methyl-1H-imidazole-2-carboxamido)phenyl)-1-methyl-1H-pyrrole-2-carboxylate], the IC50 in test [1] is 36 ± 2.3 nM. Moreover, the “DNA adduct formation (HPLC chromatogram)” value in test [3] is recorded as “evidence of DNA adduct formation; also recorded: interacted with the DNA consensus sequence to form adducts”.

For the molecule `COc1cc2c(cc1OC)C(=O)N1CC[C@H](O)[C@H]1C=N2` [Compound 42, (1S,11aR)-1-Hydroxy-7,8-dimethoxy-1,2,3,11a-tetrahydro-5H-benzo[e]pyrrolo[1,2-a][1,4]diazepin-5-one], in test [2], the “DNA adduct formation (HPLC chromatogram)” value is “evidence of DNA adduct formation; also recorded: interacted with the DNA consensus sequence to form adducts”.

With `COC(=O)c1cc(-c2ccc(NC(=O)c3nc(NC(=O)CCCOc4cc5c(cc4OC)C(=O)N4CCC[C@H]4C=N5)cn3C)cc2)cn1C` [KMR-28-39], the “activity against some cancer cell lines” value in the test on cancer cell lines was “femtomolar activity”.
